Measurements: patent US20110263697A1, “Methods of Reducing Oxidative Modification of a Muscle Cell Protein” (STOKELY-VAN CAMP, INC., priority 2010, published 2011)

Test system: myosin heavy chain (MHC) protein in C2C12 myotubes
Experiment: Muscle cell assay: oxidative modification of myosin heavy chain protein after electrical pulse stimulation (OXYBLOT)
Type: cell-based, Mouse
Method: Mouse C2C12 myoblasts were purchased from American Type Culture Collection (ATCC; Manassas, Va.) and grown to 90% confluence in high glucose Dubecco's Modified Eagle media (DMEM) with 10% fetal bovine serum (FBS). Myoblasts from the purchased lot were grown in T75 flasks and passaged >5 times prior to plating in collagen coated six-well plates for experimentation. To induce myotube differentiation FBS was replaced with 2% horse serum for 5 days. Myoblasts were grown and myotubes were maintained without antibiotics in a 37° C., 5% CO2 incubator. Western blot analysis for myosin heavy chain (MHC) protein indicated expression by day five with maintenance of steady state protein levels through day eight of differentiation. Electrical pulsing was applied to the myotubes using a C-Pace EP Cell Culture Stimulator (IonOptix; Milton, Mass.). Cells were stimulated to visibly and repetitively contract for 90 minutes at a pulse frequency of 0.5 Hz and a pulse duration of 24 ms. Immediately prior to stimulation, day old media was removed and replaced with 5 ml of fresh differentiation media. Myotubes were lysed and proteins were derivatized to 2,4-dinitrophenylhydrazone (DNP; OXYBLOT method). […] Protein bands were visualized and quantified with a Bio-Rad Chemidoc XRS system. […]

## Cc1c(C)c2c(c(C)c1O)CCC(C)(C(=O)O)O2 (centres unmarked) [TROLOX, 6-hydroxy-2,5,7,8-tetramethylchroman-2-carboxylic acid]
1 mM TROLOX pre-treatment approx. 18 h prior and again immediately before EPS, 90 min EPS at 0.5 Hz, 24 ms, five independent experiments, FIG. 4
  Oxidative modification of MHC protein reduced (% of EPS alone): 42±15%
Incubated with 1 mM TROLOX and subjected to electrical pulse stimulation
  Oxidative modification of myosin heavy chain protein compared to electrical pulse stimulation alone (FIG. 4): reduced oxidative modification
